Reference: ChEMBL document CHEMBL1136551, “Characterization of the mechanism of anticonvulsant activity for a selected set of putative AMPA receptor antagonists” (Bioorg Med Chem Lett, 2003)

Experiments:
[1] = biological target: Glutamate receptor ionotropic, AMPA (Rattus norvegicus) (UniProt P19491+P19492+P19493+P19490); test: Percent inhibition of [3H]CP-526427 binding to Ionotropic glutamate receptor AMPA in rat forebrain membranes at 32 uM; assay type: cell membranes; details: Membrane
[2] = organism: Mus musculus; test: Anticonvulsant activity against audiogenic seizures in DBA/2 mice measured in tonic phase; assay type: functional
[3] = biological target: Glutamate receptor ionotropic, NMDA 1 (Rattus norvegicus) (UniProt P35439); test: Percentage inhibition of [3H]glycine to NMDA receptors of rat cortical membranes at 32 uM; assay type: cell membranes; details: Membrane
[4] = organism: Rattus norvegicus; test: Inhibition of KA-induced increase in [Ca2+]i in rat cerebellar granule neurons; assay type: functional
[5] = organism: Mus musculus; test: Anticonvulsant activity against audiogenic seizures in DBA/2 mice measured in clonic phase; assay type: functional
[6] = biological target: Glutamate receptor ionotropic, NMDA 1 (Rattus norvegicus, UniProt P35439); test: Inhibition of specific binding of [3H]glycine to NMDA receptors, in rat cortical membranes at 32 uM conc.; assay type: cell membranes, Membrane
[7] = biological target: T1, Glutamate receptor ionotropic, AMPA (Rattus norvegicus, UniProt P19490+P19491+P19492+P19493); test: Ability to displace [3H]CP-526427 from the Ionotropic glutamate receptor AMPA binding site in rat forebrain membranes; assay type: cell membranes, Brain, Membrane
[8] = biological target: T1, Glutamate receptor ionotropic, AMPA; test: Ability to displace [3H]CP-526427 from the AMPA receptor binding site in rat forebrain membranes; assay type: cell membranes, Membrane

Compound: CCCCNC(=O)N1NC(c2ccc(N)cc2)c2cc3c(cc2CC1=O)OCO3 (centres undefined)
- inhibition [1]: 0%
- ED50 [2]: 32.7 µmol/kg
- inhibition [3]: 13%
- IC50 [4]: > 100 µM
- ED50 [5]: 39.2 µmol/kg

Compound: Nc1ccc(C2NNC(=O)Cc3cc4c(cc32)OCO4)cc1 (centres undefined)
- inhibition [1]: 10%
- ED50 [2]: 6.47 µmol/kg
- inhibition [3]: 9%
- IC50 [4]: > 100 µM

Compound: Nc1ccc(-c2nnc(O)c3cc4c(cc23)OCO4)cc1
- inhibition [1]: 13%
- inhibition [3]: 12%
- IC50 [4]: > 100 µM

Compound: NS(=O)(=O)c1cccc2c1c([N+](=O)[O-])cc1nc(O)c(O)nc12
- inhibition [3]: 3%

Compound: CNC(=O)N1NC(c2ccc(N)cc2)c2cc3c(cc2CC1=O)OCO3 (centres undefined)
- inhibition [1]: 0%
- ED50 [2]: 12.4 µmol/kg
- inhibition [3]: 12%
- IC50 [4]: > 100 µM
- ED50 [5]: 14.7 µmol/kg

Compound: O=C(O)c1cc(O)c2c(Cl)cc(Cl)cc2n1
- IC50 [6]: 0.09 µM

Compound: CNC(=O)NC(=O)Cc1cc2c(cc1Cc1ccc(N)cc1)OCO2
- inhibition [1]: 0%
- inhibition [3]: 0%

Compound: CNC(=O)NC(=O)Cc1cc2c(cc1C(=O)c1ccc(N)cc1)OCO2
- inhibition [1]: 3%
- inhibition [3]: 11%

Compound: Nc1ccc(C2=NNC(=O)Cc3cc4c(cc32)OCO4)cc1
- inhibition [1]: 74%
- IC50 [7]: 32 µM
- inhibition [3]: 0%
- IC50 [4]: 13 µM

Compound: CCCCNC(=O)n1nc(-c2ccc(N)cc2)c2cc3c(cc2c1=O)OCO3
- inhibition [1]: 0%
- inhibition [3]: 13%
- IC50 [4]: > 100 µM

Compound: CNC(=O)N/N=C(\c1ccc(N)cc1)c1cc2c(cc1CC(=O)OC)OCO2
- inhibition [1]: 16%
- inhibition [3]: 2%
- ED50 [5]: 7.87 µmol/kg

Compound: CNC(=O)N1N=C(c2ccc(N)cc2)c2cc3c(cc2CC1=O)OCO3
- inhibition [1]: 59%
- IC50 [7]: 12 µM
- inhibition [3]: 0%
- IC50 [4]: 11 µM

Compound: CC1=NN=C(c2ccc(N)cc2)c2cc3c(cc2C1)OCO3 [GYKI-52466]
- IC50 [8]: 12.6 µM
- inhibition [3]: 18%
- IC50 [4]: 22 µM

Compound: Nc1cccc(C2=NNC(=O)Cc3cc4c(cc32)OCO4)c1
- inhibition [1]: 31%
- IC50 [7]: > 320 µM
- inhibition [3]: 0%
- IC50 [4]: > 320 µM
